Results reported in patent publication US20260062412A1, “NITROGEN-CONTAINING HETEROCYCLIC COMPOUND HAVING MYT1 INHIBITORY ACTIVITY” (CHUGAI SEIYAKU KABUSHIKI KAISHA, priority 2023, published 2026).

These compounds were tested against MYT1 protein (Homo sapiens (Human), UniProt Q99640) (assay: Test for binding to ATP binding site of MYT1 (Kinase Tracer 178 / Eu-Anti-GST antibody TR-FRET)). Details: ATP binding site of MYT1, 30 minutes at room temperature.
MYT1 protein, sequence (Q99640 whole entry): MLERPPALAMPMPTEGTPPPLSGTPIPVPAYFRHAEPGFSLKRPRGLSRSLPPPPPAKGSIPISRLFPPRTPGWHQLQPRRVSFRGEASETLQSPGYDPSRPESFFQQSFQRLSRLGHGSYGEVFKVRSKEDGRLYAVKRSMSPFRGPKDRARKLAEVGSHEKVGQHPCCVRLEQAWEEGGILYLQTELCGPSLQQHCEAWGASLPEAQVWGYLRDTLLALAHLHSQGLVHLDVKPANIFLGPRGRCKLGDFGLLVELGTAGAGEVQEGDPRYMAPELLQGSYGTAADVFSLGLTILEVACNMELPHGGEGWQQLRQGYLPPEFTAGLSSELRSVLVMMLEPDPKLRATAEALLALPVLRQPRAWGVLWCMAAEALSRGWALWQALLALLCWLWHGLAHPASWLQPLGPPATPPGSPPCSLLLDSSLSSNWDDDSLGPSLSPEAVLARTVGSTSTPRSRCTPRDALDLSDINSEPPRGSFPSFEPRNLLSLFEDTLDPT
In the case of `Cc1c(C2CC2)c2ncccc2c2[nH]c(=O)c(N)c(-c3cc(F)c(F)c4[nH]ncc34)c12` [Compound C217, 3-Amino-6-cyclopropyl-4-(6,7-difluoro-1H-indazol-4-yl)-5-methyl-1H-1,7-phenanthrolin-2-one], the IC50 is reported as 1.8 nM.
Work on `Cc1cc2ncccc2c2[nH]c(=O)c(N)c(-c3cc(F)c(F)c4[nH]ncc34)c12` [Compound C218, 3-Amino-4-(6,7-difluoro-1H-indazol-4-yl)-5-methyl-1H-1,7-phenanthrolin-2-one] yielded an IC50 of 0.43 nM.
`Cc1c(F)c2c(-c3cc(F)c(F)c4[nH]ncc34)c(N)c(=O)[nH]c2c2cccnc12` [Compound C219, 3-Amino-4-(6,7-difluoro-1H-indazol-4-yl)-5-fluoro-6-methyl-1H-1,7-phenanthrolin-2-one] was tested, and the IC50 was 2.1 nM.
For `Nc1c(-c2cc(F)c(F)c3[nH]ncc23)c2c(F)c(C3CC3)c3ncccc3c2[nH]c1=O` [Compound C220, 3-Amino-6-cyclopropyl-4-(6,7-difluoro-1H-indazol-4-yl)-5-fluoro-1H-1,7-phenanthrolin-2-one], the IC50 was 4.1 nM.
Compound `Nc1c(-c2cc(F)c(F)c3[nH]ncc23)c2c(F)cc3ncccc3c2[nH]c1=O` [Compound C221, 3-Amino-4-(6,7-difluoro-1H-indazol-4-yl)-5-fluoro-1H-1,7-phenanthrolin-2-one] has an IC50 of 0.72 nM.
`Cc1cc2c(-c3c(F)cc(F)c4[nH]ncc34)c(N)c(=O)[nH]c2c2cccnc12` [Compound C222, 3-Amino-4-(5,7-difluoro-1H-indazol-4-yl)-6-methyl-1H-1,7-phenanthrolin-2-one] gave an IC50 of 1.4 nM.
`Cc1cc2c(-c3nccc4[nH]ncc34)c(N)c(=O)[nH]c2c2cccnc12` [Compound C223, 3-Amino-6-methyl-4-(1H-pyrazolo[4,3-c]pyridin-4-yl)-1H-1,7-phenanthrolin-2-one] gave an IC50 of 750 nM.
For `Cc1cc2c(-c3cccc4[nH]nnc34)c(N)c(=O)[nH]c2c2cccnc12` [Compound C224, 3-Amino-4-(1H-benzotriazol-4-yl)-6-methyl-1H-1,7-phenanthrolin-2-one], the IC50 was 3000 nM.
For `CC(C)(C)c1cc2c(-c3ccc(F)c4[nH]ncc34)c(N)c(=O)[nH]c2c2cccnc12` [Compound C225, 3-Amino-6-(tert-butyl)-4-(7-fluoro-1H-indazol-4-yl)-1H-1,7-phenanthrolin-2-one], the IC50 was 1000 nM.
Compound `Cc1cc2c(-c3ccc(F)c4[nH]ncc34)c(N)c(=O)[nH]c2c2ncccc12` [Compound D3, 3-Amino-4-(7-fluoro-1H-indazol-4-yl)-6-methyl-1H-1,10-phenanthrolin-2-one] has an IC50 of 4.6 nM.
With `Nc1c(-c2ccc(F)c3[nH]ncc23)c2ccc3cccnc3c2[nH]c1=O` [Compound D4, 3-Amino-4-(7-fluoro-1H-indazol-4-yl)-1H-1,10-phenanthrolin-2-one] the IC50 was 15 nM.
With `CCc1cc2c(-c3ccc(F)c4[nH]ncc34)c(N)c(=O)[nH]c2c2ncccc12` [Compound D5, 3-Amino-6-ethyl-4-(7-fluoro-1H-indazol-4-yl)-1H-1,10-phenanthrolin-2-one] the IC50 was 6.4 nM.
Work on `CN1CCN(c2cc3c(-c4ccc(F)c5[nH]ncc45)c(N)c(=O)[nH]c3c3ncccc23)CC1` [Compound D6, 3-Amino-4-(7-fluoro-1H-indazol-4-yl)-6-(4-methylpiperazin-1-yl)-1H-1,10-phenanthrolin-2-one] yielded an IC50 of 2.1 nM.
In the case of `Nc1c(-c2ccc(F)c3[nH]ncc23)c2cc(N3CCC(N4CCOCC4)CC3)c3cccnc3c2[nH]c1=O` [Compound D7, 3-Amino-4-(7-fluoro-1H-indazol-4-yl)-6-(4-morpholin-4-ylpiperidin-1-yl)-1H-1,10-phenanthrolin-2-one], the IC50 is reported as 15 nM.
Work on `Nc1c(-c2ccc(F)c3[nH]ncc23)c2cc(N3CCC(F)(F)C3)c3cccnc3c2[nH]c1=O` [Compound D8, 3-Amino-6-(3,3-difluoropyrrolidin-1-yl)-4-(7-fluoro-1H-indazol-4-yl)-1H-1,10-phenanthrolin-2-one] yielded an IC50 of 10 nM.
`Nc1c(-c2ccc(F)c3[nH]ncc23)c2cc(N3CCOCC3)c3cccnc3c2[nH]c1=O` [Compound D9, 3-Amino-4-(7-fluoro-1H-indazol-4-yl)-6-morpholin-4-yl-1H-1,10-phenanthrolin-2-one] showed an IC50 of 22 nM.
Compound `Nc1c(-c2ccc(F)c3[nH]ncc23)c2cc(N3CC4(COC4)C3)c3cccnc3c2[nH]c1=O` [Compound D10, 3-Amino-4-(7-fluoro-1H-indazol-4-yl)-6-(2-oxa-6-azaspiro[3,3]heptan-6-yl)-1H-1,10-one] has an IC50 of 3.9 nM.
With `Nc1c(-c2ccc(F)c3[nH]ncc23)c2cc(N3CC(N4CC(F)(F)C4)C3)c3cccnc3c2[nH]c1=O` [Compound D11, 3-Amino-6-[3-(3,3-difluoroazetidin-1-yl)azetidin-1-yl]-4-(7-fluoro-1H-indazol-4-yl)-1H-1,10-phenanthrolin-2-one] the IC50 was 20 nM.
`Nc1c(-c2ccc(F)c3[nH]ncc23)c2cc(N3CCN4CCOC[C@H]4C3)c3cccnc3c2[nH]c1=O` [Compound D12, 6-[(9aR)-3,4,6,7,9,9a-hexahydro-1H-pyrazino[2,1-c][1,4]oxazin-8-yl]-3-amino-4-(7-fluoro-1H-indazol-4-yl)-1H-1,10-phenanthrolin-2-one] was tested, and the IC50 was 49 nM.
For `Nc1c(-c2ccc(F)c3[nH]ncc23)c2cc(N3CCN4CCOC[C@@H]4C3)c3cccnc3c2[nH]c1=O` [Compound D13, 6-[(9aS)-3,4,6,7,9,9a-hexahydro-1H-pyrazino[2,1-c][1,4]oxazin-8-yl]-3-amino-4-(7-fluoro-1H-indazol-4-yl)-1H-1,10-phenanthrolin-2-one], the IC50 was 25 nM.
Compound `Nc1c(-c2ccc(F)c3[nH]ncc23)c2cc(N3CCN(CC(F)F)CC3)c3cccnc3c2[nH]c1=O` [Compound D14, 3-Amino-6-[4-(2,2-difluoroethyl)piperazin-1-yl]-4-(7-fluoro-1H-indazol-4-yl)-1H-1,10-phenanthrolin-2-one] has an IC50 of 33 nM.
In the case of `Nc1c(-c2ccc(F)c3[nH]ncc23)c2cc(N3CCN(CC(F)(F)F)CC3)c3cccnc3c2[nH]c1=O` [Compound D15, 3-Amino-4-(7-fluoro-1H-indazol-4-yl)-6-[4-(2,2,2-trifluoroethyl)piperazin-1-yl]-1H-1,10-phenanthrolin-2-one], the IC50 is reported as 69 nM.
`CS(=O)(=O)Nc1cc2c(-c3ccc(F)c4[nH]ncc34)c(N)c(=O)[nH]c2c2ncccc12` [Compound D16, N-[8-Amino-7-(7-fluoro-1H-indazol-4-yl)-9-oxo-10H-1,10-phenanthroline-5-yl]methanesulfonamide] was tested, and the IC50 was 2.7 nM.
Work on `Nc1c(-c2ccc(F)c3[nH]ncc23)c2cc(NS(=O)(=O)C3CC3)c3cccnc3c2[nH]c1=O` [Compound D17, N-[8-amino-7-(7-fluoro-1H-indazol-4-yl)-9-oxo-10H-1,10-phenanthrolin-5-yl]cyclopropanesulfonamide] yielded an IC50 of 3.1 nM.
`COc1cc2c(-c3ccc(F)c4[nH]ncc34)c(N)c(=O)[nH]c2c2ncccc12` [Compound D18, 3-Amino-4-(7-fluoro-1H-indazol-4-yl)-6-methoxy-1H-1,10-phenanthrolin-2-one] showed an IC50 of 0.25 nM.
`CC(=O)Nc1cc2c(-c3ccc(F)c4[nH]ncc34)c(N)c(=O)[nH]c2c2ncccc12` [Compound D19, N-[8-amino-7-(7-fluoro-1H-indazol-4-yl)-9-oxo-10H-1,10-phenanthrolin-5-yl]acetamide] showed an IC50 of 22 nM.
Work on `CC(C)Nc1cc2c(-c3ccc(F)c4[nH]ncc34)c(N)c(=O)[nH]c2c2ncccc12` [Compound D20, 3-Amino-4-(7-fluoro-1H-indazol-4-yl)-6-(propan-2-ylamino)-1H-1,10-phenanthrolin-2-one] yielded an IC50 of 7 nM.
